Values of other authors as cited in US20220226232A1, “Dental formulation comprising xylitol and propolis” (SERVIDENCE INC., priority 2021, published 2022).

Conditions: oral exposition

Structure (SMILES): OC[C@@H](O)[C@H](O)[C@@H](O)CO [xylitol]
- prevention of otitis: 20%
